Measurements reported in the supplement of paper PMC10307832.

Tests used:
Assay in all cases: relative viability (nuclei count vs DMSO), 5 days (fraction); higher = more cells survive
XMD14-99 + Dasatinib = compound: CN1CCN(CC1)C2=CC(=C(C=C2)NC3=NC(=C(S3)C(=O)C4=C(C=CC=C4Cl)Cl)N)OC [XMD14-99] + Cc1nc(Nc2ncc(C(=O)Nc3c(C)cccc3Cl)s2)cc(N2CCN(CCO)CC2)n1 [Dasatinib] (partner 0.075 µM)
How it was run: (§1)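 Lung cancer cell lines in 1536-well plates were dosed by pin tool the day after seeding, either with one drug alone or with a fixed anchor-drug dose plus five library-drug doses (not always all listed) in √10 steps. After 5 days, cells were fixed and their nuclei stained in one step (final 0.05% Triton X-100, 1% formaldehyde, 1 ug/ml Hoechst), then counted on 4× images. Relative viability is the nuclei count in treated wells divided by that in vehicle wells. Values are medians of duplicate plates.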

AZD1208 + Luminespib = compound: N[C@@H]1CCCN(c2c(/C=C3\SC(=O)NC3=O)cccc2-c2ccccc2)C1 [AZD1208] + CCNC(=O)c1noc(-c2cc(C(C)C)c(O)cc2O)c1-c1ccc(CN2CCOCC2)cc1 [Luminespib] (partner 0.01 µM)
How it was run: as §1

AZD1208 + Alpelisib = compound: N[C@@H]1CCCN(c2c(/C=C3\SC(=O)NC3=O)cccc2-c2ccccc2)C1 [AZD1208] + Cc1nc(NC(=O)N2CCC[C@H]2C(N)=O)sc1-c1ccnc(C(C)(C)C(F)(F)F)c1 [Alpelisib] (partner 2 µM)
How it was run: as §1

AZD1208 + Decitabine = compound: N[C@@H]1CCCN(c2c(/C=C3\SC(=O)NC3=O)cccc2-c2ccccc2)C1 [AZD1208] + Nc1ncn([C@H]2C[C@H](O)[C@@H](CO)O2)c(=O)n1 [Decitabine] (partner 2 µM)
How it was run: as §1

For UMC-11, the relative viability (XMD14-99 + Dasatinib; first compound 0.08 µM) was 0.441, the relative viability (XMD14-99 + Dasatinib; first compound 0.8 µM) was 0.478 and the relative viability (XMD14-99 + Dasatinib; first compound 2.53 µM) was 0.438. For the same cell line, the relative viability (XMD14-99 + Dasatinib; first compound 8 µM) was 0.344, the relative viability (AZD1208 + Luminespib; first compound 0.08 µM) was 0.816 and the relative viability (AZD1208 + Luminespib; first compound 0.253 µM) was 0.894. The relative viability (AZD1208 + Luminespib; first compound 0.8 µM) was 0.62, the relative viability (AZD1208 + Luminespib; first compound 2.53 µM) was 0.664 and the relative viability (AZD1208 + Luminespib; first compound 8 µM) was 0.406. The relative viability (AZD1208 + Alpelisib; first compound 0.08 µM) was 0.757, the relative viability (AZD1208 + Alpelisib; first compound 0.253 µM) was 0.908 and the relative viability (AZD1208 + Alpelisib; first compound 0.8 µM) was 0.746. The relative viability (AZD1208 + Alpelisib; first compound 2.53 µM) was 0.77, the relative viability (AZD1208 + Alpelisib; first compound 8 µM) was 0.488 and the relative viability (AZD1208 + Decitabine; first compound 0.08 µM) was 0.478. It also gave a relative viability (AZD1208 + Decitabine; first compound 0.253 µM) of 0.513, a relative viability (AZD1208 + Decitabine; first compound 0.8 µM) of 0.49 and a relative viability (AZD1208 + Decitabine; first compound 2.53 µM) of 0.515. It also gave a relative viability (AZD1208 + Decitabine; first compound 8 µM) of 0.383.
